Legend:
Assay in all cases: relative viability (nuclei count vs DMSO), 5 days (fraction); higher = more cells survive
Bexarotene + Tozasertib = compound: C=C(c1ccc(C(=O)O)cc1)c1cc2c(cc1C)C(C)(C)CCC2(C)C [Bexarotene] + Cc1cc(Nc2cc(N3CCN(C)CC3)nc(Sc3ccc(NC(=O)C4CC4)cc3)n2)n[nH]1 [Tozasertib] (partner 0.1 µM)
Procedure, shortened: (§1)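 Lung cancer cell lines in 1536-well plates were dosed by pin tool the day after seeding, either with one drug alone or with a fixed anchor-drug dose plus five library-drug doses (not always all listed) in √10 steps. After 5 days, cells were fixed and their nuclei stained in one step (final 0.05% Triton X-100, 1% formaldehyde, 1 ug/ml Hoechst), then counted on 4× images. Relative viability is the nuclei count in treated wells divided by that in vehicle wells. Values are medians of duplicate plates.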

Bexarotene + Alpelisib = compound: C=C(c1ccc(C(=O)O)cc1)c1cc2c(cc1C)C(C)(C)CCC2(C)C [Bexarotene] + Cc1nc(NC(=O)N2CCC[C@H]2C(N)=O)sc1-c1ccnc(C(C)(C)C(F)(F)F)c1 [Alpelisib] (partner 2 µM)
Procedure, shortened: as §1

Bexarotene + Luminespib = compound: C=C(c1ccc(C(=O)O)cc1)c1cc2c(cc1C)C(C)(C)CCC2(C)C [Bexarotene] + CCNC(=O)c1noc(-c2cc(C(C)C)c(O)cc2O)c1-c1ccc(CN2CCOCC2)cc1 [Luminespib] (partner 0.01 µM)
Procedure, shortened: as §1

Bexarotene + Dasatinib = compound: C=C(c1ccc(C(=O)O)cc1)c1cc2c(cc1C)C(C)(C)CCC2(C)C [Bexarotene] + Cc1nc(Nc2ncc(C(=O)Nc3c(C)cccc3Cl)s2)cc(N2CCN(CCO)CC2)n1 [Dasatinib] (partner 0.075 µM)
Procedure, shortened: as §1

With PC-3 [JPC-3] the relative viability (Bexarotene + Tozasertib; first compound 0.08 µM) was 0.905, the relative viability (Bexarotene + Tozasertib; first compound 0.253 µM) was 0.889 and the relative viability (Bexarotene + Tozasertib; first compound 0.8 µM) was 0.758. The relative viability (Bexarotene + Tozasertib; first compound 2.53 µM) was 0.862, the relative viability (Bexarotene + Tozasertib; first compound 8 µM) was 0.755 and the relative viability (Bexarotene + Alpelisib; first compound 0.08 µM) was 1.06. The relative viability (Bexarotene + Alpelisib; first compound 0.253 µM) was 1.08, the relative viability (Bexarotene + Alpelisib; first compound 0.8 µM) was 0.815 and the relative viability (Bexarotene + Alpelisib; first compound 2.53 µM) was 0.984. The relative viability (Bexarotene + Alpelisib; first compound 8 µM) was 0.932, the relative viability (Bexarotene + Luminespib; first compound 0.08 µM) was 0.645 and the relative viability (Bexarotene + Luminespib; first compound 0.253 µM) was 0.618. For the same cell line, the relative viability (Bexarotene + Luminespib; first compound 0.8 µM) was 0.635, the relative viability (Bexarotene + Luminespib; first compound 2.53 µM) was 0.775 and the relative viability (Bexarotene + Luminespib; first compound 8 µM) was 0.616. The relative viability (Bexarotene + Dasatinib; first compound 0.08 µM) was 0.77, the relative viability (Bexarotene + Dasatinib; first compound 0.253 µM) was 0.928 and the relative viability (Bexarotene + Dasatinib; first compound 0.8 µM) was 0.833. It also gave a relative viability (Bexarotene + Dasatinib; first compound 2.53 µM) of 0.974 and a relative viability (Bexarotene + Dasatinib; first compound 8 µM) of 0.867.
Work on PC-14 yielded a relative viability (Bexarotene + Tozasertib; first compound 0.08 µM) of 0.626, a relative viability (Bexarotene + Tozasertib; first compound 0.253 µM) of 0.778 and a relative viability (Bexarotene + Tozasertib; first compound 0.8 µM) of 0.649. It also gave a relative viability (Bexarotene + Tozasertib; first compound 2.53 µM) of 0.576, a relative viability (Bexarotene + Tozasertib; first compound 8 µM) of 0.66 and a relative viability (Bexarotene + Alpelisib; first compound 0.08 µM) of 1.02. The relative viability (Bexarotene + Alpelisib; first compound 0.253 µM) was 1.06, the relative viability (Bexarotene + Alpelisib; first compound 0.8 µM) was 0.9 and the relative viability (Bexarotene + Alpelisib; first compound 2.53 µM) was 0.957. It also gave a relative viability (Bexarotene + Alpelisib; first compound 8 µM) of 0.921, a relative viability (Bexarotene + Luminespib; first compound 0.08 µM) of 0.17 and a relative viability (Bexarotene + Luminespib; first compound 0.253 µM) of 0.178. The relative viability (Bexarotene + Luminespib; first compound 0.8 µM) was 0.157, the relative viability (Bexarotene + Luminespib; first compound 2.53 µM) was 0.162 and the relative viability (Bexarotene + Luminespib; first compound 8 µM) was 0.279. It also gave a relative viability (Bexarotene + Dasatinib; first compound 0.08 µM) of 0.281, a relative viability (Bexarotene + Dasatinib; first compound 0.253 µM) of 0.305 and a relative viability (Bexarotene + Dasatinib; first compound 0.8 µM) of 0.269. The relative viability (Bexarotene + Dasatinib; first compound 2.53 µM) was 0.319 and the relative viability (Bexarotene + Dasatinib; first compound 8 µM) was 0.274.
RERF-LC-KJ showed a relative viability (Bexarotene + Tozasertib; first compound 0.08 µM) of 0.459, a relative viability (Bexarotene + Tozasertib; first compound 0.253 µM) of 0.585 and a relative viability (Bexarotene + Tozasertib; first compound 0.8 µM) of 0.415. The relative viability (Bexarotene + Tozasertib; first compound 2.53 µM) was 0.467, the relative viability (Bexarotene + Tozasertib; first compound 8 µM) was 0.542 and the relative viability (Bexarotene + Alpelisib; first compound 0.08 µM) was 0.712. For the same cell line, the relative viability (Bexarotene + Alpelisib; first compound 0.253 µM) was 0.784, the relative viability (Bexarotene + Alpelisib; first compound 0.8 µM) was 0.723 and the relative viability (Bexarotene + Alpelisib; first compound 2.53 µM) was 0.715. For the same cell line, the relative viability (Bexarotene + Alpelisib; first compound 8 µM) was 0.77, the relative viability (Bexarotene + Luminespib; first compound 0.08 µM) was 1.17 and the relative viability (Bexarotene + Luminespib; first compound 0.253 µM) was 1.23. For the same cell line, the relative viability (Bexarotene + Luminespib; first compound 0.8 µM) was 1.1, the relative viability (Bexarotene + Luminespib; first compound 2.53 µM) was 1.1 and the relative viability (Bexarotene + Luminespib; first compound 8 µM) was 1.07. The relative viability (Bexarotene + Dasatinib; first compound 0.08 µM) was 0.757, the relative viability (Bexarotene + Dasatinib; first compound 0.253 µM) was 0.707 and the relative viability (Bexarotene + Dasatinib; first compound 0.8 µM) was 0.703. For the same cell line, the relative viability (Bexarotene + Dasatinib; first compound 2.53 µM) was 0.825 and the relative viability (Bexarotene + Dasatinib; first compound 8 µM) was 0.742.
Cell Line SK-LU-1 has a relative viability (Bexarotene + Tozasertib; first compound 0.08 µM) of 0.284, a relative viability (Bexarotene + Tozasertib; first compound 0.253 µM) of 0.346 and a relative viability (Bexarotene + Tozasertib; first compound 2.53 µM) of 0.358. The relative viability (Bexarotene + Tozasertib; first compound 8 µM) was 0.321, the relative viability (Bexarotene + Alpelisib; first compound 0.08 µM) was 1.11 and the relative viability (Bexarotene + Alpelisib; first compound 0.253 µM) was 1.06. For the same cell line, the relative viability (Bexarotene + Alpelisib; first compound 2.53 µM) was 0.97, the relative viability (Bexarotene + Alpelisib; first compound 8 µM) was 0.988 and the relative viability (Bexarotene + Luminespib; first compound 0.08 µM) was 0.201. It also gave a relative viability (Bexarotene + Luminespib; first compound 0.253 µM) of 0.188, a relative viability (Bexarotene + Luminespib; first compound 2.53 µM) of 0.177 and a relative viability (Bexarotene + Luminespib; first compound 8 µM) of 0.173. It also gave a relative viability (Bexarotene + Dasatinib; first compound 0.08 µM) of 0.201, a relative viability (Bexarotene + Dasatinib; first compound 0.253 µM) of 0.215 and a relative viability (Bexarotene + Dasatinib; first compound 2.53 µM) of 0.2. For the same cell line, the relative viability (Bexarotene + Dasatinib; first compound 8 µM) was 0.203.
For SK-MES-1, the relative viability (Bexarotene + Tozasertib; first compound 0.08 µM) was 0.907, the relative viability (Bexarotene + Tozasertib; first compound 0.253 µM) was 0.95 and the relative viability (Bexarotene + Tozasertib; first compound 0.8 µM) was 0.784. It also gave a relative viability (Bexarotene + Tozasertib; first compound 2.53 µM) of 0.832, a relative viability (Bexarotene + Tozasertib; first compound 8 µM) of 0.573 and a relative viability (Bexarotene + Alpelisib; first compound 0.08 µM) of 1.06. The relative viability (Bexarotene + Alpelisib; first compound 0.253 µM) was 0.948, the relative viability (Bexarotene + Alpelisib; first compound 0.8 µM) was 0.961 and the relative viability (Bexarotene + Alpelisib; first compound 2.53 µM) was 0.893. For the same cell line, the relative viability (Bexarotene + Alpelisib; first compound 8 µM) was 0.956, the relative viability (Bexarotene + Luminespib; first compound 0.08 µM) was 0.923 and the relative viability (Bexarotene + Luminespib; first compound 0.253 µM) was 0.989. For the same cell line, the relative viability (Bexarotene + Luminespib; first compound 0.8 µM) was 0.803, the relative viability (Bexarotene + Luminespib; first compound 2.53 µM) was 0.742 and the relative viability (Bexarotene + Luminespib; first compound 8 µM) was 0.64. The relative viability (Bexarotene + Dasatinib; first compound 0.08 µM) was 0.283, the relative viability (Bexarotene + Dasatinib; first compound 0.253 µM) was 0.459 and the relative viability (Bexarotene + Dasatinib; first compound 0.8 µM) was 0.348. For the same cell line, the relative viability (Bexarotene + Dasatinib; first compound 2.53 µM) was 0.401 and the relative viability (Bexarotene + Dasatinib; first compound 8 µM) was 0.313.
SW 1573 was tested, and the relative viability (Bexarotene + Tozasertib; first compound 0.08 µM) was 0.219, the relative viability (Bexarotene + Tozasertib; first compound 0.253 µM) was 0.171 and the relative viability (Bexarotene + Tozasertib; first compound 0.8 µM) was 0.251. For the same cell line, the relative viability (Bexarotene + Tozasertib; first compound 2.53 µM) was 0.162, the relative viability (Bexarotene + Tozasertib; first compound 8 µM) was 0.224 and the relative viability (Bexarotene + Alpelisib; first compound 0.08 µM) was 0.706. The relative viability (Bexarotene + Alpelisib; first compound 0.253 µM) was 0.454, the relative viability (Bexarotene + Alpelisib; first compound 0.8 µM) was 0.51 and the relative viability (Bexarotene + Alpelisib; first compound 2.53 µM) was 0.454. For the same cell line, the relative viability (Bexarotene + Alpelisib; first compound 8 µM) was 0.422, the relative viability (Bexarotene + Luminespib; first compound 0.08 µM) was 0.252 and the relative viability (Bexarotene + Luminespib; first compound 0.253 µM) was 0.216. It also gave a relative viability (Bexarotene + Luminespib; first compound 0.8 µM) of 0.222, a relative viability (Bexarotene + Luminespib; first compound 2.53 µM) of 0.615 and a relative viability (Bexarotene + Luminespib; first compound 8 µM) of 0.242. For the same cell line, the relative viability (Bexarotene + Dasatinib; first compound 0.08 µM) was 0.593, the relative viability (Bexarotene + Dasatinib; first compound 0.253 µM) was 0.467 and the relative viability (Bexarotene + Dasatinib; first compound 0.8 µM) was 0.402. For the same cell line, the relative viability (Bexarotene + Dasatinib; first compound 2.53 µM) was 0.301 and the relative viability (Bexarotene + Dasatinib; first compound 8 µM) was 0.41.
Work on UMC-11 yielded a relative viability (Bexarotene + Tozasertib; first compound 0.08 µM) of 0.224, a relative viability (Bexarotene + Tozasertib; first compound 0.253 µM) of 0.202 and a relative viability (Bexarotene + Tozasertib; first compound 0.8 µM) of 0.202. The relative viability (Bexarotene + Tozasertib; first compound 2.53 µM) was 0.21, the relative viability (Bexarotene + Tozasertib; first compound 8 µM) was 0.221 and the relative viability (Bexarotene + Alpelisib; first compound 0.08 µM) was 0.971. The relative viability (Bexarotene + Alpelisib; first compound 0.253 µM) was 1.02, the relative viability (Bexarotene + Alpelisib; first compound 0.8 µM) was 0.954 and the relative viability (Bexarotene + Alpelisib; first compound 2.53 µM) was 1.04. It also gave a relative viability (Bexarotene + Alpelisib; first compound 8 µM) of 0.955, a relative viability (Bexarotene + Luminespib; first compound 0.08 µM) of 1.04 and a relative viability (Bexarotene + Luminespib; first compound 0.253 µM) of 0.983. The relative viability (Bexarotene + Luminespib; first compound 0.8 µM) was 0.866, the relative viability (Bexarotene + Luminespib; first compound 2.53 µM) was 0.911 and the relative viability (Bexarotene + Luminespib; first compound 8 µM) was 0.969. It also gave a relative viability (Bexarotene + Dasatinib; first compound 0.08 µM) of 0.485, a relative viability (Bexarotene + Dasatinib; first compound 0.253 µM) of 0.516 and a relative viability (Bexarotene + Dasatinib; first compound 0.8 µM) of 0.516. For the same cell line, the relative viability (Bexarotene + Dasatinib; first compound 2.53 µM) was 0.514 and the relative viability (Bexarotene + Dasatinib; first compound 8 µM) was 0.493.

From the supplement of paper PMC10307832
